# Like-named read-outs stand apart in the source and are kept apart here.
# Tested on: HBsAg
# Assay: HBsAg assay: inhibition of HBsAg in HepG2.2.15 cells (chemiluminescence immunoassay of supernatant)
# Type: cell-based, hepatitis B virus
# Conditions: HBsAg in supernatant at day 6 after exposure to compound, 0.5% DMSO
# Description: Inhibition of HBsAg was determined in HepG2.2.15 cells. Cells were maintained in culture medium containing 10% fetal calf serum, […], Glutamine, penicillin/streptomycin. Cells were seeded in 96-well collagen-coated plate at a density of 30,000 cells/well. Serially diluted compounds were added to cells next day at the final DMSO concentration of 0.5%. Cells were incubated with compounds for 2-3 days, after which medium was removed. Fresh medium containing compounds was added to cells for additional 3-4 days. At day 6 after exposure of compounds, supernatant was collected, the HBsAg immunoassay (microplate-based chemiluminescence immunoassay kits, CLIA, Autobio Diagnosics Co., Zhengzhou, China, Catalog # CL0310-2) was used to determine the level of HBsAg according to manufactory instruction. Dose-response curves were generated and the EC50 value (effective concentrations that achieved 50% inhibitory effect) were determined using XLfit software. In addition, cells were seeded at a density of 5,000 cells/well for determination of cell viability in the presence and absence of compounds by using CellTiter-Glo reagent (Promega).
# Table 1 illustrates EC50 values obtained by the HBsAg assay for selected compounds.
# [1] = read-out: sAg EC50, HepG2.2.15 cells
# [2] = Hepatitis B virus, HepG2.2.15, 144 h, read-out: sAg EC50, HepG2.2.15 cells
SMILES,EC50 [1],EC50 [2]
"COc1cc(C2CC2c2cnc(-c3ncccn3)nc2)ccc1Cl (single isomer, unassigned) [Example 33, trans-5-(2-(4-Chloro-3-methoxyphenyl)cyclopropyl)-2,2′-bipyrimidine]",0.031 µM,–
"CC(=O)N1CC[C@@H](Nc2cc(C3CC3c3cnc(-c4ncccn4)nc3)cc(F)c2F)C1 (single isomer, unassigned) [Example 226]",1 µM,–
"CC1(C)CCN(c2cc(C3CC3c3cnc(-c4ncccn4)nc3)cc(F)c2F)C1 (single isomer, unassigned) [Example 220, trans-5-(2-(3-(3,3-Dimethylpyrrolidin-1-yl)-4,5-difluorophenyl)cyclopropyl)-2,2′-bipyrimidine]",0.03 µM,–
"CO[C@H]1CCN(c2cc(C3CC3c3cnc(-c4ncccn4)nc3)cc(Cl)c2F)C1 (single isomer, unassigned) [Example 117]",0.011 µM,–
"Fc1cc([C@@H]2C[C@H]2c2cnc(-c3ncccn3)nc2)cc(OCCCN2CCOCC2)c1F (relative stereo) [Example 240, trans-4-(3-(5-(2-([2,2′-Bipyrimidin]-5-yl)cyclopropyl)-2,3-difluorophenoxy)propyl)morpholine]",–,0.21 µM
"Fc1cc(C2CC2c2cnc(-c3ncccn3)nc2)cc(OC2CCCC2)c1F (single isomer, unassigned) [Example 245, trans-5-(2-(3-(Cyclopentyloxy)-4,5-difluorophenyl)cyclopropyl)-2,2′-bipyrimidine]",5 µM,–
"CN1CC[C@@H](Nc2cc(C3CC3c3cnc(-c4ncccn4)nc3)cc(F)c2F)C1 (single isomer, unassigned) [Example 231]",0.75 µM,–
"COc1c(Cl)ccc(C2CC2c2cnc(-c3ncccn3)nc2)c1Cl (single isomer, unassigned) [Example 132, trans-5-(2-(2,4-Dichloro-3-methoxyphenyl)cyclopropyl)-2,2′-bipyrimidine]",–,0.12 µM
"CO[C@H]1CCN(c2cc(C3CC3c3cnc(-c4ncccn4)nc3)cc(F)c2F)C1 (single isomer, unassigned) [Example 102]",0.029 µM,–
"CO[C@@H]1CCN(c2cc(C3CC3c3cnc(-c4ncccn4)nc3)ccc2F)C1 (single isomer, unassigned) [Example 94]",–,0.27 µM
"COc1ccc(C2CN(c3cc([C@@H]4C[C@H]4c4cnc(-c5ncccn5)nc4)cc(F)c3F)C2)cc1OC (relative stereo) [Example 216, trans-5-(2-(3-(3-(3,4-Dimethoxyphenyl)azetidin-1-yl)-4,5-difluorophenyl)cyclopropyl)-2,2′-bipyrimidine]",–,0.025 µM
"COc1cc(F)cc(C2CC2c2cnc(-c3ncccn3)nc2)c1 (single isomer, unassigned) [Example 113, trans-5-(2-(3-Fluoro-5-methoxyphenyl)cyclopropyl)-2,2′-bipyrimidine]",0.026 µM,–
"Fc1cc([C@@H]2C[C@H]2c2cnc(-c3ncccn3)nc2)cc(F)c1OCCCN1CCOCC1 (relative stereo) [Example 241, trans-4-(3-(4-(2-([2,2′-Bipyrimidin]-5-yl)cyclopropyl)-2,6-difluorophenoxy)propyl)morpholine]",–,0.83 µM
"CC(=O)N1CC[C@H](Nc2cc(C3CC3c3cnc(-c4ncccn4)nc3)cc(F)c2F)C1 (single isomer, unassigned) [Example 224]",5 µM,–
"COc1cc(C2CC2c2cnc(-c3ncccn3)nc2)cc(F)c1F (single isomer, unassigned) [Example 85, trans-5-(2-(3,4-Difluoro-5-methoxyphenyl)cyclopropyl)-2,2′-bipyrimidine]",0.029 µM,–
"OC1CC2(C1)CN(c1cc([C@@H]3C[C@H]3c3cnc(-c4ncccn4)nc3)cc(F)c1F)C2 (relative stereo) [Example 238, trans-2-(5-(2-([2,2′-Bipyrimidin]-5-yl)cyclopropyl)-2,3-difluorophenyl)-2-azaspiro[3.3]heptan-6-ol]",–,0.053 µM
"COc1cc([C@@H]2C[C@H]2c2cnc(-c3ncccn3)nc2)ccc1OC(F)(F)F (relative stereo) [Example 152, trans-5-(2-(3-Methoxy-4-(trifluoromethoxy)phenyl)cyclopropyl)-2,2′-bipyrimidine]",–,0.7 µM
"COc1cc(C2CC2c2cnc(-c3ncccn3)nc2)ccc1F (single isomer, unassigned) [Example 10, trans-5-(2-(4-Fluoro-3-methoxyphenyl)cyclopropyl)-2,2′-bipyrimidine]",0.04 µM,–
"Fc1cc(C2CC2c2cnc(-c3ncccn3)nc2)cc(NC2CCCC2)c1F (single isomer, unassigned) [Example 207, trans-5-(2-([2,2′-Bipyrimidin]-5-yl)cyclopropyl)-N-cyclopentyl-2,3-difluoroaniline]",0.75 µM,–

SMILES,EC50 [1],EC50 [2]
"COc1cc([C@@H]2C[C@H]2c2cnc(-c3ncccc3F)nc2)cc(F)c1F (relative stereo) [Example 179, trans-5-(2-(3,4-Difluoro-5-methoxyphenyl)cyclopropyl)-2-(3-fluoropyridin-2-yl)pyrimidine]",–,0.37 µM
"O[C@H]1CCN(c2cc(C3CC3c3cnc(-c4ncccn4)nc3)cc(Cl)c2F)C1 (single isomer, unassigned) [Example 120]",0.099 µM,–
"CCc1nc(-c2ncccn2)ncc1C1CC1c1ccc(F)c(OC)c1 (single isomer, unassigned) [Example 76, trans-4-Ethyl-5-(2-(4-fluoro-3-methoxyphenyl)cyclopropyl)-2,2′-bipyrimidine]",2 µM,–
"COc1cc(C2CC2c2cnc(-c3ncccn3)nc2)cc(Cl)c1F (single isomer, unassigned) [Example 148, trans-5-(2-(3-Chloro-4-fluoro-5-methoxyphenyl)cyclopropyl)-2,2′-bipyrimidine]",1 µM,–
"OC1CN(c2cc(C3CC3c3cnc(-c4ncccn4)nc3)ccc2F)C1 (single isomer, unassigned) [Example 54, trans-1-(5-(2-([2,2′-Bipyrimidin]-5-yl)cyclopropyl)-2-fluorophenyl)azetidin-3-ol]",0.22 µM,–
"COc1c(Cl)ccc(C2CC2c2cnc(-c3ncccn3)nc2)c1OC (single isomer, unassigned) [Example 115, trans-5-(2-(4-Chloro-2,3-dimethoxyphenyl)cyclopropyl)-2,2′-bipyrimidine]",0.32 µM,–
"Fc1cc([C@@H]2C[C@H]2c2cnc(-c3ncccn3)nc2)cc(-n2cccn2)c1F (single isomer, unassigned) [Example 253, trans-5-(2-(3,4-difluoro-5-(1H-pyrazol-1-yl)phenyl)cyclopropyl)-2,2′-bipyrimidine]",–,0.029 µM
"COc1ccc(C2CC2c2cnc(-c3ncccn3)nc2)cc1OC (single isomer, unassigned) [Example 31, trans-5-(2-(3,4-Dimethoxyphenyl)cyclopropyl)-2,2′-bipyrimidine]",–,0.33 µM
"COc1cc(C2CC2c2cnc(-c3ncccn3)nc2)c(F)cc1Cl (single isomer, unassigned) [Example 86, trans-5-(2-(4-Chloro-2-fluoro-5-methoxyphenyl)cyclopropyl)-2,2′-bipyrimidine]",–,0.13 µM
"COc1cc(F)cc(C2CC2c2cnc(-c3ncccn3)nc2)c1 (single isomer, unassigned) [Example 112, trans-5-(2-(3-Fluoro-5-methoxyphenyl)cyclopropyl)-2,2′-bipyrimidine]",0.5 µM,–
"COc1cc(C2CC2c2cnc(-c3ncccn3)nc2)cc(F)c1F (single isomer, unassigned) [Example 84, trans-5-(2-(3,4-Difluoro-5-methoxyphenyl)cyclopropyl)-2,2′-bipyrimidine]",0.24 µM,–
"O[C@H]1CCN(c2cc(C3CC3c3cnc(-c4ncccn4)nc3)cc(F)c2F)C1 (single isomer, unassigned) [Example 107]",0.021 µM,–
"COCCCOc1cc(F)c(Cl)cc1C1CC1c1cnc(-c2ncccn2)nc1 (single isomer, unassigned) [Example 154, trans-5-(2-(5-Chloro-4-fluoro-2-(3-methoxypropoxy)phenyl)cyclopropyl)-2,2′-bipyrimidine]",0.3 µM,–
"COc1cc(C2CC2c2cnc(-c3ncccn3)nc2)cc(F)c1Cl (single isomer, unassigned) [Example 46, trans-5-(2-(4-Chloro-3-fluoro-5-methoxyphenyl)cyclopropyl)-2,2′-bipyrimidine]",0.035 µM,–
"COc1ccc([C@H]2C[C@H]2c2cnc(-c3ncccn3)nc2)c(F)c1 (relative stereo) [Example 73, cis-5-(2-(2-Fluoro-4-methoxyphenyl)cyclopropyl)-2,2′-bipyrimidine]",–,9 µM
"COc1cc(C2CC2c2cnc(-c3ncccn3)nc2C(C)C)ccc1F (single isomer, unassigned) [Example 75, trans-5-(2-(4-Fluoro-3-methoxyphenyl)cyclopropyl)-4-isopropyl-2,2′-bipyrimidine]",2 µM,–
"Fc1cc([C@@H]2C[C@H]2c2cnc(-c3ncccn3)nc2)cc(OC2CC3(COC3)C2)c1F (relative stereo) [Example 243, trans-5-(2-(3-((2-Oxaspiro[3.3]heptan-6-yl)oxy)-4,5-difluorophenyl)cyclopropyl)-2,2′-bipyrimidine]",–,0.11 µM
"COc1cc([C@@H]2C[C@H]2c2cnc(-c3ccncn3)nc2)cc(F)c1F (relative stereo) [Example 177, trans-5-(2-(3,4-Difluoro-5-methoxyphenyl)cyclopropyl)-2,4′-bipyrimidine]",–,0.36 µM
